Data set [1] can be described thus: Absorption and fluorescence properties in water. Format: physicochemical. The following applies: for λem: λex 360 nm for compound 5, 385 nm for compounds 7 and 10. Here is the method:
All chemicals and solvents were purchased from commercial suppliers and used without further purification unless otherwise specified. Prior to use, N,N-dimethylformamide was stored over molecular sieves (4 Å), while toluene and dichloromethane were dried over anhydrous sodium sulfate. All reactions were performed in oven dried flasks under argon atmosphere with magnetic stirring. Reaction progress was monitored by TLC analysis on Macherey-Nagel™ ALUGRAM® Xtra SIL G/UV254 plates. TLC plates were visualized with UV light (wavelengths 254 and 365 nm) or iodine vapour. Compounds were purified by flash chromatography in a glass column (stationary phase - silicagel, high-purity grade 9385, pore size 60 Å, particle size - 230-400 mesh, supplier Sigma-Aldrich). ^1H and ^13C NMR spectra were recorded at room temperature on a Bruker Avance III 700 spectrometer (700 MHz for ^1H and 176 MHz for ^13C) in CDCl3 as solvent. FT-IR spectra were collected using ATR method on a Bruker Vertex 70v spectrometer with an integrated Platinum ATR accessory. The melting points of crystalline compounds were determined in open capillary tubes with a Buchi M-565 apparatus (temperature gradient - 2 °C/min) and are uncorrected. High-resolution mass spectrometry (HRMS) spectra were obtained in ESI mode on a Bruker MicrOTOF-Q III spectrometer. UV-Vis absorption and fluorescence spectra were registered on an Infinity M200 Pro Tecan microplate reader.
Fluorescence properties of final compounds 5, 7 and 10 were investigated in water. The excitation wavelength λex was set to 360 nm for compound 5 and to 385 nm for compounds 7 and 10. The emission maxima λem of all three compounds are located in the 475-525 nm range, which corresponds to the blue part of the visible light spectrum.
On the other hand, as expected an additional double bond in compound 10, compared to compound 7, caused both a bathochromic shift of the emission maxima. […] Table 2. Absorption and fluorescence characteristics of compounds 5, 7 and 10 in water.

The test system of data set [2] is G361 cell line. The experiment in a line: MTT cell viability assay without irradiation (dark viability). It counts as cell-based, human. The following applies: G361, treated 24 h, no irradiation; viability similar to untreated cells. As to the method: G361 cell line (human skin melanoma) was cultivated in DMEM medium supplemented with 10% fetal bovine serum, 1% penicillin/streptomycin, 1% glutamine, at 37 °C in 5% CO2 atmosphere. Viability of cells was determined using the MTT (Sigma-Aldrich) assay in 96-well microplates (10^4 per well in 100 µl of DMEM). The test compounds were added 24 h post plating and the cells were then incubated for additional 24 h. Cells were then exposed to an irradiation in 100 µl of PBS with 5 mM glucose and incubated for further 24 h. After the experiment, 50 µl of MTT (dissolved in PBS) was added and cells were incubated for another 3 h at 37 °C and in 5 % CO2. The media was then carefully replaced with 100 µl of DMSO in order to solubilize the violet formazan crystals. The measurement of absorbance was carried out on reader Synergy HT at 570 nm and 690 nm. The cell viability of the samples was determined as a percentage of the control cell viability (100 × average of test group / average of control group). The data for the determination of EC50 was calculated using the Phototox v. 2.0 software (ZEBET). Dark viability was measured in parallel under the same conditions without irradiation. The viability of cells treated with compounds 5, 7 and 10 for 24 h without irradiation was similar to untreated cells, thus concluding that the compounds have no cytotoxicity up to 10 µM concentrations (Figure 4).
For orientation: Tetrazolium dyes change colour on reduction, which living cells bring about.

The test system of data set [3] is irradiated G361 cells. The experiment in a line: Photodynamic treatment (LED 414 nm) with MTT cell viability assay. Particulars: Homo sapiens, G-361, light or radiation study. Format: cell-based. Here is the method: G361 cell line (human skin melanoma) was cultivated in DMEM medium supplemented with 10% fetal bovine serum, 1% penicillin/streptomycin, 1% glutamine, at 37 °C in 5% CO2 atmosphere. Viability of cells was determined using the MTT (Sigma-Aldrich) assay in 96-well microplates (10^4 per well in 100 µl of DMEM). The test compounds were added 24 h post plating and the cells were then incubated for additional 24 h. Cells were then exposed to an irradiation in 100 µl of PBS with 5 mM glucose and incubated for further 24 h. After the experiment, 50 µl of MTT (dissolved in PBS) was added and cells were incubated for another 3 h at 37 °C and in 5 % CO2. The media was then carefully replaced with 100 µl of DMSO in order to solubilize the violet formazan crystals. The measurement of absorbance was carried out on reader Synergy HT at 570 nm and 690 nm. The cell viability of the samples was determined as a percentage of the control cell viability (100 × average of test group / average of control group). The data for the determination of EC50 was calculated using the Phototox v. 2.0 software (ZEBET). Dark viability was measured in parallel under the same conditions without irradiation. An in-house constructed LED based light source specifically designed for the irradiation of 96-well microplates and Petri dishes (Tomecka et al., CZ302829B6, 2006) was used; a maximal wavelength emission of 414 nm and light intensity set to 20 mW/cm^2. For photodynamic treatments, cultivation medium was aspirated and replaced by PBS supplemented with 5 mM glucose. Immediately after irradiation, PBS was removed and full DMEM was added to cells. The cultivation lasted for subsequent 24 h. All assays were performed in triplicates and repeated independently three times. In an initial experiment, G361 cells were treated with the tested compounds for 24 h and then exposed to light (LED source, 414 nm) with a total irradiation dose of 10 J/cm^2. Viability of cells was quantified 24 h after the irradiation by an MTT assay (Table 3). Subsequently, G361 cells treated with compound 7 were also exposed to total irradiation doses of 1 and 50 J/cm^2. Table 3. EC50 of compounds 5, 7 and 10 in irradiated G361 cells (10 J/cm2).

In data set [4] the test system is G361 cell line. In words: Reactive oxygen species (ROS) production, CM-H2DCFDA fluorescence. It counts as cell-based, human. The following applies: G361, 0.052 µM, irradiation of 50 J/cm2 (414 nm). Here is the method: ROS was quantified using a CM-H2DCFDA (Invitrogen) solution (10 µl 10 µM DCF + 1 ml PBS) and a microplate reader Synergy HT. Right after adding 50 µl of DCF solution, 25 min incubation and irradiation, the ROS production was determined by measuring fluorescence using Synergy HT reader. An excitation wavelength of 485 nm and an emission wavelength of 548 nm were used.

Data set [5] deals with G361 cells. In words: Mitochondrial membrane potential change assay (JC-1). It counts as cell-based, human. The following applies: G361, 0.052 µM, irradiated with 50 J/cm^2 (414 nm). Here is the method: Mitochondrial membrane potential change was monitored by the fluorescent dye JC-1. After 24 h incubation the cells were washed by PBS. Then 50 µl of a JC-1 solution (Sigma-Aldrich) was added (5 mg/ml in DMSO + 5 ml PBS) and cells were incubated at 37 °C and in 5 % CO2 for 20 min. After incubation the cells were washed by PBS twice. The results were expressed as the ratio of the green fluorescence (excitation wavelength - 485 nm, emission wavelength - 548 nm) and red fluorescence (excitation wavelength - 520 nm, emission wavelength - 590 nm) retained within the cells. JC fluorescence was measured using Synergy HT reader.

Data set [6] has as its system G361 cells. In words: Comet assay (DNA fragmentation). Format: cell-based, human. Particulars: irradiated with 50 J/cm2. Here is the method:
Microscope slides were pre-coated with 1% HMP agarose (Qbiogene) dissolved in distilled water. After stiffening, two 1% agarose spots (dissolved in PBS) were made and overlayed with a cover slip. Treated or control G361 cells were trypsinized, rinsed by DMEM and then the mixture of 25 µl of cell suspension and 85 µl of 1% LMP agarose (dissolved in PBS) was added to the microscope slides with agarose gel. The microscope slides were immersed in a lysis buffer with 1% Triton X for 1 h and then placed in an electrophoretic tank and dipped into a cool electrophoresis solution for 40 min. After the electrophoresis (20 V, 350 mA, 20 min), the microscopic slides were immersed in a neutralisation buffer (10 min twice). The samples were then stained by SYBR Green (Invitrogen) for 15 min and scored by the SW Comet Score (TriTek Corp.). In order to determine the extent of DNA fragmentation caused by a combination of compound 7 and irradiation in G361 cells, comet assay was performed (Figure 4). The cells were divided into four groups according to degree of DNA fragmentation: 0-10%, 11-30%, 31-50% and 50-100%. […] Table 5. Degree of DNA fragmentation in G361 cell line treated by compound 7 at 0.052 µM and irradiated with 50 J/cm2.

Data set [7] concerns histone H2A.X phosphorylation at Ser-139. The experiment in a line: DNA damage by immunoblotting of histone H2A.X phosphorylation. It counts as cell-based, human. Particulars: G361, treated 24 h. Here is the method: After the treatment, cell lysates were prepared in RIPA buffer, then proteins were separated on SDS-polyacrylamide gels and electroblotted onto nitrocellulose membranes. After blocking, overnight incubation with specific primary antibodies and incubation with peroxidase-conjugated secondary antibodies, the peroxidase activity was detected with SuperSignal West Pico reagents (Thermo Scientific) using a CCD camera LAS-4000 (Fujifilm). All primary antibodies were diluted in PBS containing 5% powdered milk and 0.1% Tween 20. The specific antibodies were purchased from Cell Signaling (anti-PARP, clone 46D11; HRP-linked rabbit anti-mouse immunoglobulin), Sigma Aldrich (anti-α-tubulin, clone DM1A), Millipore (anti-phospho-histone H2A.X, Ser139, clone JBW301). To independently confirm DNA damage caused by a combination of compound 7 and irradiation in G361 cells, phosphorylation of histone H2A.X at Ser-139 (yH2A.X) was evaluated using immunoblotting analysis (Figure 5). Increased level of yH2A.X is a well-accepted marker of DNA damage. The cells were treated with different doses of compound 7 for 24 h, then either kept in dark or exposed to light with a total irradiation dose of 1, 10 or 50 J/cm^2 and cultivated for subsequent 24 h. After this period, the cells were harvested and analyzed by immunoblotting.
A general note: In western blotting, separated proteins are transferred to a membrane and probed.

Data set [8] relates to Escherichia coli (DH5alpha). In words: Antimicrobial activity with light irradiation, colony counting. It counts as cell-based. The following applies: in combination with blue light irradiation (414 nm), Fig. 6. Here is the method:
Antimicrobial activity was tested on Escherichia coli (DH5alpha).The cells were grown aerobically at 37°C in LB medium. When reached exponential growth phase, the suspension was diluted with fresh LB and supplemented with test compounds or with diluted DMSO (as a control) and seeded on Petri dishes with agar media. After 5 hours the plates were exposed to light from a light emitting diode source, a maximal wavelength emission of 414 nm, light intensity set to 20 mW/cm^2 (M. Tomecka, et al., CZ302829B6, 2006). The control samples for dark toxicity were not exposed to the light. After irradiation the plates were in the dark incubator at 37 °C for 16 h and then the colonies were counted.

[9] abbreviates: 24 h, G361, 24 h treatment, 414 nm, total irradiation dose 10 J/cm2, MTT 24 h after irradiation.

A word on the EC50: it is the concentration needed to bring the measured effect to its halfway point.

Each structure is given as a SMILES string.

In data set [1], `CCCCCCOc1nn(-c2ccccc2)cc1C#Cc1ccc2c(c1)C(C)(C)C(c1ccccc1)=N2` [Compound 5, 5-{[3-(Hexyloxy)-1-phenyl-1H-pyrazol-4-yl]ethynyl}-3,3-dimethyl-2-phenyl-3H-indole] gave a λabs of 355 nm and a λem of 475 nm. Moreover, the “cytotoxicity without irradiation (dark viability)” value (from here on “cytotoxicity without irradiation”) in data set [2] was greater than 10 µM. Besides, in data set [3] (setting [9]), the EC50 was 6213 ± 38 nM.
`CCCCCCOc1nn(-c2ccccc2)cc1/C=C/c1ccc2c(c1)C(C)(C)C(c1ccccc1)=N2` [Compound 7, 5-{(E)-2-[3-(Hexyloxy)-1-phenyl-1H-pyrazol-4-yl]ethenyl}-3,3-dimethyl-2-phenyl-3H-indole] gave a λabs in data set [1] of 380 nm. Also, the λem in data set [1] worked out at 495 nm. The “cytotoxicity without irradiation” value in data set [2] is recorded as greater than 10 µM. Moreover, the 50% effective concentration (EC50) in data set [3] (setting [9]) turned out to be 262 ± 2 nM; in data set [3] (G361, 414 nm, total irradiation dose 1 J/cm^2), 3080 ± 155 nM; in data set [3] (G361, 414 nm, total irradiation dose 50 J/cm^2) it was 52 nM. Also, the “ROS production increase in comparison to control cells” value in data set [4] came to 30%. Also, the “JC-1 polymer aggregation within mitochondria (mitochondrial membrane potential)” value in data set [5] is “decrease in JC-1 polymer aggregation within mitochondria”. In data set [6] (G361, 0.052 µM), the “DNA fragmentation in comparison with untreated control cells” value was “significant DNA fragmentation”. For the same compound, the “relative number of cells, degree of DNA fragmentation 0-10 %” value in data set [6] (G361, treated, 0.052 µM) came out at 62.83 ± 2.72%. The “relative number of cells, degree of DNA fragmentation 11-30 %” value in data set [6] (G361, treated, 0.052 µM) is 30.73 ± 4.07%. Besides, the “relative number of cells, degree of DNA fragmentation 31-50 %” value in data set [6] (G361, treated, 0.052 µM) was 4.84 ± 0.65%. Moreover, the “relative number of cells, degree of DNA fragmentation 51-100 %” value in data set [6] (G361, treated, 0.052 µM) worked out at 1.6 ± 1.59%. Besides, the “H2A.X phosphorylation (yH2A.X)” value is recorded as “faint yH2A.X signal” in data set [7] (irradiation dose 1 J/cm2 (414 nm)), “massive increase of yH2A.X” in data set [7] (irradiation dose 10 J/cm2 (414 nm)), “massive increase of yH2A.X” in data set [7] (irradiation dose 50 J/cm2 (414 nm)) and “did not show any H2A.X phosphorylation” in data set [7] (kept in dark). Moreover, the antibacterial effect result in data set [8] was “antibacterial effect”.
Regarding `CCCCCCOc1nn(-c2ccccc2)cc1/C=C/C=C/c1ccc2c(c1)C(C)(C)C(c1ccccc1)=N2` [Compound 10, 5-{(1E, 3E)-4-[3-(Hexyloxy)-1-phenyl-1H-pyrazol-4-yl]buta-1,3-dien-1-yl}-3,3-dimethyl-2-phenyl-3H-indole], in data set [1], the λabs was determined as 380 nm and the λem is 525 nm. Besides, in data set [2], the “cytotoxicity without irradiation” value is greater than 10 µM. Further, the EC50 in data set [3] (setting [9]) stood at 2060 ± 82 nM.

Values taken from patent publication EP4107145B1, “PYRAZOLE-INDOLE CONJUGATES FOR PHOTODYNAMIC TREATMENT OF CANCER AND BACTERIAL INFECTIONS” (Univerzita Palackého v Olomouci, priority 2020, dated 2021).
